Test results reported in PMC10380841, “Synthesis, Characterization and Cytotoxic Evaluation of New Pyrrolo[1,2-b]pyridazines Obtained via Mesoionic Oxazolo-Pyridazinones” (International Journal of Molecular Sciences, 2023).
Read-outs that look alike come from different tables or passages of the source.

What was measured:
[1] = test system: SK-OV-3 ovary adenocarcinoma cells; experiment: MTS cytotoxicity assay, SK-OV-3; type: cell-based; conditions: Homo sapiens; SK-OV-3, 400 μM, 24 h; read-out: cell viability
Triticum aestivum L. = experiment: Triticum test, phytotoxicity (main root length); type: in vivo; conditions: 10–1000 µM
Experimental: Phytobiological testing (Triticum test) was performed by the Constantinescu method which consists in determining the maximum active dilution of a compound. Depending on the duration of action, it can influence root elongation and the […] film. […] Embryonic wheat roots were obtained by germinating homogeneous wheat caryopses in Linhart pots. Then the caryopses with a main root length of 1 cm were placed in the test solutions. For the determination of the action of each compound, five dilutions in the concentration range of 10–1000 µM were obtained and 11 caryopses were placed in them. Petri dishes containing 15 mL of diluted solution were kept under constant conditions of temperature (25 °C), and humidity (60%), in the absence of light. […] The results were expressed in comparison with a 1% DMSO control.
Statistical analyses were performed using the computing and programming environment R, R, v. 4.2.1 [68], under Rstudio, v. 2022.07.2+576 “Spotted Wakerobin” for Windows (RStudio, PBC, Boston, 2022), both for the Triticum and Artemia tests. It used a parametric mixed-effects model (R package “lme4”) and a robust mixed-effects model (R package “robustlmm”), in which root length measurements (Triticum) from all three days were used as the dependent variable, whereas compound, concentration and time were treated as fixed effects, with time (day of measurement) also treated as a random effect. Assessing statistical significance for mixed-effects statistical models is controversial and complex, but as a pragmatic way of working, we have estimated p-values using the Kenward–Rogers approximation (R package “sjPlot”). A variety of R base functions and R packages were used to diagnose the regression models (“car” [72], “MASS” [73], and “gvlma” [74]). Mixed boxplot–dotplot plots were generated using the “ggplot2” package.
The “drc” R package was used to estimate IC50 values for the Triticum bioassay by nonlinear modeling. For Triticum, the relationship between root length and concentration was modeled using Weibull functions with 2, 3, or 4 parameters, depending on the data distribution, the models being selected from a range of several models with different functions and parameters, based on the Akaike’s information criterion (AIC).

[2] = test system: SK-OV-3 ovary adenocarcinoma cells; experiment: MTS cytotoxicity assay, SK-OV-3; type: cell-based, human; conditions: Homo sapiens
Experimental: (§1) Therefore, the precursor acids 2a–c and corresponding pyrrolo[1,2-b]pyridazines 5a–c,f were tested for their potential cytotoxic activity. During the assays, increasing concentrations of the compounds, ranging from […], were added for 24 h or 48 h to cancer LoVo, SK-OV-3, MCF-7, and the reference HUVEC cells, previously cultured for 24 h in 96-well flat bottom plates. […] Then, MTS reagent was added, and cells were incubated for 4 h at 37 °C in a 5% CO2 humidified atmosphere. The absorbance values were spectrophotometrically read to a Dynex ELISA reader at λ = […].
(§2) For the evaluation of the in vitro potential anti-proliferative effects of treatments with the new compounds under study against solid tumor-derived cells, several compound-mediated cytotoxicity assays were performed on three adherent tumor standardized cell lines, and normal human endothelial cells, used as control: the MCF-7 human breast adenocarcinoma and SK-OV-3 human ovary adenocarcinoma cell lines were provided from European Collection of Authenticated Cell Cultures (ECACC), while LoVo, human colorectal adenocarcinoma cell line, and HUVEC human umbilical vein endothelial cells were purchased from American Type Culture Collection (ATCC).
(§3) Adherent cells were cultivated in DMEM/F12 medium added with 2 mM L-glutamine and 10% fetal bovine serum, 100 units/mL penicillin, 100 µg/mL streptomycin (Sigma Aldrich, St. Louis, MO, USA) and incubated at 37 °C in 5% CO2 humidified atmosphere. The stock solutions for cell treatments were prepared by dissolving the synthesized compounds in a minimum amount of DMSO. Working dilutions were prepared from the stock solutions in culture medium before each treatment assay. After 24 h, when cell cultures achieved around 70% confluence, treatments were applied for various periods of time with different concentrations of synthesized compounds or oncolytic drugs, used as positive controls.
(§4) Therefore, cell cultures treated with the new compounds or oncolytic drugs for 24 h or 48 h were further subjected to a colorimetric cell viability method, the MTS assay. The absorbance of probes was read, data were calculated, and percentages of cell viability were assessed.
(§5) The evaluation of the compound-induced cytotoxicity was made using the CellTiter 96 Aqueous One Solution Cell Proliferation Assay (Promega, Madison, WI, USA), a reagent that contains both MTS (3-(4,5-dimethylthiazol-2-yl)-5-(3-carboxymethoxyphenyl)-2-(4-sulfophenyl)-2H-tetrazolium, inner salt) and PES ([…], a cationic dye with high chemical stability that binds to MTS and forms a stable solution).
(§6) Briefly, 1.5 × 10^4 cancer or normal cells were cultured in 100 µL/well for 24 h. After the culture supernatants were discarded, cells were treated for additional 24 h or 48 h with increasing concentrations of new compounds or oncolytic drugs. Following the specific treatments, in each well a volume of 20 µL of coloring mixture reagent of MTS and PES was added, and then the plates were incubated with mild agitation every 20 min for 4 h at 37 °C. The color developed during incubation was spectrophotometrically quantified at λ = 492 nm using a Dynex ELISA reader (DYNEX Technologies—MRS, Chantilly, VA, USA).
(§7) Data were expressed as percentages of cell viability of the treated cells, and were calculated and compared to the untreated cells (considered 100% viable), using the formula:Cell viability (%) = (T − B)/(U − B) × 100 where T = absorbance of treated cells, U = absorbance of untreated cells, and B = absorbance of culture medium (blank), for λ = 492 nm.
(§8) The cell viability data were expressed as the mean values ± standard deviations (SD) of three different experiments (n = 3). […] Moreover, a parallel experiment was performed in the absence of cells, with all the concentrations of the compounds being tested for their potential interference with MTS reagents; then, their absorbance values were extracted during calculations.

[3] = test system: LoVo colon adenocarcinoma cells; experiment: MTS cytotoxicity assay, LoVo; type: cell-based; conditions: Homo sapiens, 400 μM, read-out: cell viability
[4] = test system: LoVo colon adenocarcinoma cells; experiment: MTS cytotoxicity assay, LoVo; type: cell-based, human; conditions: Homo sapiens
Experimental: as §1, §2, §3, §4, §5, §6, §7, §8

CCOC(=O)c1cc(CC)n2nc(-c3ccc(F)cc3)ccc12 [Compound 5e, Ethyl 7-ethyl-2-(4-fluorophenyl)pyrrolo[1,2-b]pyridazine-5-carboxylate]
viability at 400 µM [1]: 87.5%
effect on root length (Triticum aestivum L.; vs 1% DMSO control): concentration-dependent inhibitory effect
IC50 (Triticum aestivum L.; Triticum aestivum, 72 h, Triticum root length, measured over three days): 607 µM
IC50 ([2]; SK-OV-3, 24 h, read-out: IC50 Sk-OV-3 24 h): ≥ 400 µM
IC50 ([2]; SK-OV-3, 48 h, read-out: IC50 Sk-OV-3 48 h): ≥ 400 µM
viability at 400 µM ([3]; 24 h): 82.2%
viability at 400 µM ([3]; 48 h): 67.4%
IC50 ([4]; 24 h, read-out: IC50 LoVo 24 h): ≥ 400 µM
IC50 ([4]; 48 h, read-out: IC50 LoVo 48 h): ≥ 400 µM
